Measured values from US10588317B2, “Isoxazoline-substituted benzamides and analogues as insecticides” (priority 2015, dated 2020).

How the values were obtained:
Type in all cases: in vivo
[1] = system: Diabrotica balteata; assay: Diabrotica balteata (corn root worm), sprayed maize sprouts; conditions: 96 h, application rate 200 ppm, L2 larvae, 4 days after infestation, read-out: effect in at least one of the two categories (mortality or growth inhibition)
Procedure, shortened: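 Read-out at 4 days post-infestation: mortality and growth inhibition relative to untreated samples. Test solutions (200 ppm, from DMSO stocks) were sprayed onto agar-held maize sprouts, which after drying received 6–10 L2 larvae per well.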

[2] = system: Euschistus heros; assay: Euschistus heros (neotropical brown stink bug), sprayed soybean leaves; conditions: 120 h, application rate 200 ppm, N2 nymphs, 5 days after infestation, read-out: effect in at least one of the two categories (mortality or growth inhibition)
Procedure, shortened: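 Scored 5 days post-infestation versus untreated controls, for both mortality and growth inhibition: N2 nymphs placed on agar-mounted soybean leaves previously sprayed at 200 ppm with aqueous test solutions from DMSO stocks and left to dry.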

[3] = system: Myzus persicae; assay: Myzus persicae (green peach aphid): feeding/contact activity; conditions: 144 h, application rate 200 ppm, aphid population of mixed ages, 6 days after infestation, read-out: mortality
Procedure: (§1) Sunflower leaf discs were placed onto agar in a 24-well microtiter plate and sprayed with aqueous test solutions prepared from 10'000 ppm DMSO stock solutions. After drying, the leaf discs were infested with an aphid population of mixed ages. The samples were assessed for mortality 6 days after infestation.

[4] = system: Plutella xylostella; assay: Plutella xylostella (diamond back moth), artificial diet; conditions: 120 h, application rate 200 ppm, L2 larvae, 5 days after infestation, read-out: effect in at least one of the two categories (mortality or growth inhibition)
Procedure, shortened: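 L2 larvae (10-15 per well) fed on compound-treated, dried artificial diet; test solutions diluted in water from 10'000 ppm DMSO stocks. Readout 5 days post-infestation as mortality or growth inhibition versus untreated diet, with at least 80% effect at 200 ppm as threshold.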

[5] = system: Spodoptera littoralis; assay: Spodoptera littoralis (Egyptian cotton leaf worm), sprayed cotton leaf discs; conditions: foliar, 72 h, application rate 200 ppm, L1 larvae, 3 days after infestation, read-out: control (mortality, anti-feeding effect, growth inhibition)
Procedure, shortened: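 Five first-instar larvae placed on dried cotton leaf discs (on agar) previously sprayed with aqueous dilutions of 10'000 ppm DMSO stocks. Scored at 3 days against untreated discs for mortality, feeding inhibition and growth inhibition; any category above untreated counts as control.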

[6] = system: Spodoptera littoralis; assay: Spodoptera littoralis (Egyptian cotton leaf worm), uptake by lettuce roots from agar; conditions: 144 h, read-out: effect in at least one of the three categories (mortality, anti-feeding, or growth inhibition)
Procedure, shortened: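 Systemic test: Spodoptera eggs placed on lettuce leaves from seedlings raised 7 days on agar containing the compound (diluted from 10'000 ppm DMSO stock). Six days after infestation, larvae scored against untreated controls for mortality, feeding deterrence and growth inhibition.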

[7] = system: Tetranychus urticae; assay: Tetranychus urticae (two-spotted spider mite): feeding/contact activity; conditions: 192 h, application rate 200 ppm, mixed population (mobile stages), 8 days after infestation, read-out: mortality
Procedure: Bean leaf discs on agar in 24-well microtiter plates were sprayed with aqueous test solutions prepared from 10'000 ppm DMSO stock solutions. After drying the leaf discs were infested with a mite population of mixed ages. The samples were assessed for mortality on mixed population (mobile stages) 8 days after infestation.

[8] = system: Thrips tabaci; assay: Thrips tabaci (onion thrips): feeding/contact activity; conditions: 144 h, application rate 200 ppm, Thrips population of mixed ages, 6 days after infestation, read-out: mortality
Procedure: as §1, with “on” for “onto”, “in” for “in a”, “plates” for “plate”, “drying” for “drying,”, “a Thrips” for “an aphid”

Cc1cc(C2=NOC(c3cc(Cl)cc(Cl)c3)(C(F)(F)Cl)C2)ccc1C(=O)NC1CON(S(C)(=O)=O)C1 (stereo not shown) [Compound A64]
≥ 80%: percent effect (mortality or growth inhibition) at 200 ppm [1] | percent effect (mortality or growth inhibition) at 200 ppm [2] | mortality at 200 ppm [3] | percent effect (mortality or growth inhibition) at 200 ppm [4] | mortality at 200 ppm [5] | percent effect (mortality, anti-feeding or growth inhibition) at 12.5 ppm ([6]; test rate 12.5 ppm, eggs, 6 days after infestation) | mortality at 200 ppm [7] | mortality at 200 ppm [8]

COCCN(C)S(=O)(=O)N1CC(NC(=O)c2ccc(C3=NO[C@@](c4cc(Cl)c(Cl)c(Cl)c4)(C(F)(F)F)C3)cc2C)CO1 (stereo partly drawn) [Compound A90, N-[2-[2-methoxyethyl(methyl)sulfamoyl]isoxazolidin-4-yl]-2-methyl-4-[(5S)-5-(3,4,5-trichlorophenyl)-5-(trifluoromethyl)-4H-isoxazol-3-yl]benzamide]
≥ 80%: percent effect (mortality or growth inhibition) at 200 ppm [1] | percent effect (mortality or growth inhibition) at 200 ppm [2] | mortality at 200 ppm [3] | percent effect (mortality or growth inhibition) at 200 ppm [4] | mortality at 200 ppm [5] | percent control (mortality, anti-feedant effect or growth inhibition) at 12.5 ppm [6] | mortality at 200 ppm [7] | mortality at 200 ppm [8]

Cc1cc(C2=NO[C@@](c3cc(Cl)c(F)c(Cl)c3)(C(F)(F)F)C2)ccc1C(=O)N[C@H]1CON(S(=O)(=O)N(C)C)C1 (single isomer, unassigned) [Compound A143]
≥ 80%: percent effect (mortality or growth inhibition) at 200 ppm [1] | percent effect (mortality or growth inhibition) at 200 ppm [2] | mortality at 200 ppm [3] | percent effect (mortality or growth inhibition) at 200 ppm [4] | mortality at 200 ppm [5] | percent control (mortality, anti-feedant effect or growth inhibition) at 12.5 ppm [6] | mortality at 200 ppm [7] | mortality at 200 ppm [8]

Cc1cc(C2=NO[C@@](c3cc(Cl)c(Cl)c(Cl)c3)(C(F)(F)F)C2)ccc1C(=O)NC1CON(S(N)(=O)=O)C1 (stereo partly shown) [Compound A35]
≥ 80%: percent effect (mortality or growth inhibition) at 200 ppm [1] | percent effect (mortality or growth inhibition) at 200 ppm [2] | mortality at 200 ppm [3] | percent effect (mortality or growth inhibition) at 200 ppm [4] | mortality at 200 ppm [5] | percent control (mortality, anti-feedant effect or growth inhibition) at 12.5 ppm [6] | mortality at 200 ppm [7] | mortality at 200 ppm [8]

CN(C)S(=O)(=O)N1C[C@@H](NC(=O)c2ccc(C3=NO[C@@](c4cc(Cl)c(F)c(Cl)c4)(C(F)(F)F)C3)cc2Cl)CO1 [Compound A107]
≥ 80%: percent effect (mortality or growth inhibition) at 200 ppm [1] | percent effect (mortality or growth inhibition) at 200 ppm [2] | mortality at 200 ppm [3] | percent effect (mortality or growth inhibition) at 200 ppm [4] | mortality at 200 ppm [5] | percent control (mortality, anti-feedant effect or growth inhibition) at 12.5 ppm [6] | mortality at 200 ppm [7] | mortality at 200 ppm [8]

CCNS(=O)(=O)N1C[C@@H](NC(=O)c2ccc(C3=NO[C@@](c4cc(Cl)c(Cl)c(Cl)c4)(C(F)(F)F)C3)cc2Cl)CO1 [Compound A125, 2-chloro-N-[(4R)-2-(ethylsulfamoyl)isoxazolidin-4-yl]-4-[(5S)-5-(3,4,5-trichlorophenyl)-5-(trifluoromethyl)-4H-isoxazol-3-yl]benzamide]
≥ 80%: percent effect (mortality or growth inhibition) at 200 ppm [1] | percent effect (mortality or growth inhibition) at 200 ppm [2] | mortality at 200 ppm [3] | percent effect (mortality or growth inhibition) at 200 ppm [4] | mortality at 200 ppm [5] | percent control (mortality, anti-feedant effect or growth inhibition) at 12.5 ppm [6] | mortality at 200 ppm [7] | mortality at 200 ppm [8]

Cc1cc(C2=NO[C@@](c3cc(Cl)cc(Cl)c3)(C(F)(F)F)C2)ccc1C(=O)NC1CON(S(=O)(=O)N(C)C)C1 (stereo partly shown) [Compound A41]
≥ 80%: percent effect (mortality or growth inhibition) at 200 ppm [1] | percent effect (mortality or growth inhibition) at 200 ppm [2] | mortality at 200 ppm [3] | percent effect (mortality or growth inhibition) at 200 ppm [4] | mortality at 200 ppm [5] | percent control (mortality, anti-feedant effect or growth inhibition) at 12.5 ppm [6] | mortality at 200 ppm [7] | mortality at 200 ppm [8]

Cc1cc(C2=NO[C@@](c3cc(Cl)c(F)c(Cl)c3)(C(F)(F)F)C2)ccc1C(=O)N[C@H]1CON(S(C)(=O)=O)C1 (single isomer, unassigned) [Compound A13]
≥ 80%: percent effect (mortality or growth inhibition) at 200 ppm [1] | percent effect (mortality or growth inhibition) at 200 ppm [2] | mortality at 200 ppm [3] | percent effect (mortality or growth inhibition) at 200 ppm [4] | mortality at 200 ppm [5] | percent control (mortality, anti-feedant effect or growth inhibition) at 12.5 ppm [6] | mortality at 200 ppm [7] | mortality at 200 ppm [8]

Cc1cc(C2=NO[C@@](c3cc(Cl)c(F)c(Cl)c3)(C(F)(F)F)C2)ccc1C(=O)N[C@@H]1CON(S(C)(=O)=O)C1 (single isomer, unassigned) [Compound A12]
≥ 80%: percent effect (mortality or growth inhibition) at 200 ppm [1] | percent effect (mortality or growth inhibition) at 200 ppm [2] | mortality at 200 ppm [3] | percent effect (mortality or growth inhibition) at 200 ppm [4] | mortality at 200 ppm [5] | percent control (mortality, anti-feedant effect or growth inhibition) at 12.5 ppm [6] | mortality at 200 ppm [7] | mortality at 200 ppm [8]

CCN(C)S(=O)(=O)N1C[C@@H](NC(=O)c2ccc(C3=NO[C@@](c4cc(Cl)c(Cl)c(Cl)c4)(C(F)(F)F)C3)cc2Cl)CO1 [Compound A132, 2-chloro-N-[(4R)-2-[ethyl(methyl)sulfamoyl]isoxazolidin-4-yl]-4-[(5S)-5-(3,4,5-trichlorophenyl)-5-(trifluoromethyl)-4H-isoxazol-3-yl]benzamide]
≥ 80%: percent effect (mortality or growth inhibition) at 200 ppm [1] | percent effect (mortality or growth inhibition) at 200 ppm [2] | mortality at 200 ppm [3] | percent effect (mortality or growth inhibition) at 200 ppm [4] | mortality at 200 ppm [5] | percent control (mortality, anti-feedant effect or growth inhibition) at 12.5 ppm [6] | mortality at 200 ppm [7] | mortality at 200 ppm [8]

CNS(=O)(=O)N1C[C@@H](NC(=O)c2ccc(C3=NO[C@@](c4cc(Cl)cc(C(F)(F)F)c4)(C(F)(F)F)C3)cc2C)CO1 [Compound A138]
≥ 80%: percent effect (mortality or growth inhibition) at 200 ppm [1] | percent effect (mortality or growth inhibition) at 200 ppm [2] | mortality at 200 ppm [3] | percent effect (mortality or growth inhibition) at 200 ppm [4] | mortality at 200 ppm [5] | percent control (mortality, anti-feedant effect or growth inhibition) at 12.5 ppm [6] | mortality at 200 ppm [7] | mortality at 200 ppm [8]

CS(=O)(=O)N1C[C@@H](NC(=O)c2ccc(C3=NO[C@@](c4cc(Cl)cc(C(F)(F)F)c4)(C(F)(F)F)C3)cc2Cl)CO1 [Compound A123]
≥ 80%: percent effect (mortality or growth inhibition) at 200 ppm [1] | percent effect (mortality or growth inhibition) at 200 ppm [2] | mortality at 200 ppm [3] | percent effect (mortality or growth inhibition) at 200 ppm [4] | mortality at 200 ppm [5] | percent control (mortality, anti-feedant effect or growth inhibition) at 12.5 ppm [6] | mortality at 200 ppm [7] | mortality at 200 ppm [8]

Cc1cc(C2=NOC(c3cc(Cl)cc(Cl)c3)(C(F)(F)F)C2)ccc1C(=O)NC1CON(S(C)(=O)=O)C1 (stereo not shown) [Compound A33, 4-[5-(3,5-dichlorophenyl)-5-(trifluoromethyl)-4H-isoxazol-3-yl]-2-methyl-N-(2-methylsulfonylisoxazolidin-4-yl)benzamide]
≥ 80%: percent effect (mortality or growth inhibition) at 200 ppm [1] | percent effect (mortality or growth inhibition) at 200 ppm [2] | mortality at 200 ppm [3] | percent effect (mortality or growth inhibition) at 200 ppm [4] | mortality at 200 ppm [5] | percent control (mortality, anti-feedant effect or growth inhibition) at 12.5 ppm [6] | mortality at 200 ppm [7] | mortality at 200 ppm [8]

CS(=O)(=O)N1CC(NC(=O)c2ccc(C3=NO[C@@](c4cc(Cl)c(F)c(Cl)c4)(C(F)(F)F)C3)cc2Cl)CO1 (stereo partly drawn) [Compound A19, 2-chloro-4-[(5S)-5-(3,5-dichloro-4-fluoro-phenyl)-5-(trifluoromethyl)-4H-isoxazol-3-yl]-N-(2-methylsulfonylisoxazolidin-4-yl)benzamide]
≥ 80%: percent effect (mortality or growth inhibition) at 200 ppm [1] | percent effect (mortality or growth inhibition) at 200 ppm [2] | mortality at 200 ppm [3] | percent effect (mortality or growth inhibition) at 200 ppm [4] | mortality at 200 ppm [5] | percent control (mortality, anti-feedant effect or growth inhibition) at 12.5 ppm [6] | mortality at 200 ppm [7] | mortality at 200 ppm [8]
